Results on five molecules are retold here after article PMC4153677, “Probing the Activity Modification Space of the Cysteine Peptidase Cathepsin K with Novel Allosteric Modifiers” (PLoS ONE, 2014).

Read-outs that look alike come from different tables or passages of the source. Bounds are passed on as bounds.

Data set [1] concerns the target T1, Recombinant human cathepsin K (Homo sapiens, UniProt P43235).
T1 construct: made in house
T1 sequence (P43235 115-329): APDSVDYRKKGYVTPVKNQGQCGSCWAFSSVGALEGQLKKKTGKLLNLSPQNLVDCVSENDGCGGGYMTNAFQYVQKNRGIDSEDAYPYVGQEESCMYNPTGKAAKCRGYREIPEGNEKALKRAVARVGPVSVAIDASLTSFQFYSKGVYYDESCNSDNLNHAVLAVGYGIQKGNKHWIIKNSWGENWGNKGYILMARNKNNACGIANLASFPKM
As to the kind of experiment: Azocasein degradation assays. Format: biochemical. Conditions: for azocasein: fraction of residual enzyme activity: value of 1 equals the activity of unmodified enzyme, activity modification matrix. The text has this: Figure 4 Effect of modifiers on the degradation of macromolecular substrates. (A) Effect of increasing concentrations of compounds 1 and 2 on the degradation of calf skin collagen. Molecular mass standards are given in kDa and positions of α, β and γ chains of intact collagen are marked by arrows. (B) Effect of modifiers on azocasein degradation. (C) Effect of glycosaminoglycans and clusterin on azocasein degradation. Two different concentrations of each glycosaminoglycan were used in the experiments (10 µg/ml and 200 µg/ml). Error bars in panels B and C represent the SEM of three experiments. All experiments were performed in 100 mM sodium acetate buffer pH 5.50 containing 1 mM EDTA and 5 mM DTT, as described in detail in the Materials and Methods section. Abbreviations: CPD – compound, CS – chondroitin sulfate, DS – dermatan sulfate, HP – heparin.
Azocasein (Sigma-Aldrich, USA) was dissolved in 100 mM sodium acetate buffer pH 5.50 containing 1 mM EDTA and 5 mM DTT at a concentration of 3 mg/ml. Samples were incubated with 0.1 µM cathepsin K for 30 min at 37°C in the presence of each compound. […] Reactions were stopped by addition of trichloroacetic acid (final concentration 5% v/v), centrifuged, clear supernatants mixed with 0.5 M NaOH and the concentrations of solubilized peptides determined by measuring the absorbance at 440 nm. All experiments were performed in triplicates and appropriate blanks were run to take into account the absorption of azocasein and compounds alone. IC 50 values were determined as described previously.

Data set [2] concerns the target T1, Recombinant human cathepsin K. Conditions: cited from earlier work; for Z-FRAMC: geometric mean of residual activities (vA): at 0.1×Km and 10×Km substrate, modifier 10×KA, previously known modifiers, data from previous work.
Data set [3] has the same target. More on the design: key: qualitative values of 1 and 0 were used to signify inhibition and lack thereof, respectively; qualitative values of 1 and 0 were used to signify inhibition and lack thereof, respectively; a value of -1 was used to describe the concentration-dependent roles of glycosaminoglycans. The conditions noted are these: activity modification matrix; previously known modifiers, data from previous work; cited from earlier work.

The target is the same in data set [4]. The conditions noted are these: cited from earlier work; for stability: ln(sf), sf = ratio of half-lives in the presence and absence of modifier: 37 °C and pH 7.4, data from previous work.
Data set [5] shares this target. The data set is described as follows: Kinetic measurements, hydrolysis of the fluorogenic substrate Z-FR↓AMC (general modifier mechanism). Format: biochemical. Set-up: key to α (coefficient, effect of modifier on the affinity for the substrate) / β (coefficient, effect of modifier on the catalytic rate): dimensionless coefficients multiplying KS (α) and kcat (β). Here is the method: All modifiers were tested for their effect on the hydrolysis of the low molecular mass synthetic substrate Z-FR↓AMC. Since all progress curves were linear from the beginning of the reaction, initial velocities were calculated from the slopes by linear regression. […] The basic mechanism considered for the analysis of the interactions was the general modifier mechanism shown in Figure 2, in which the effect of modifier is determined by the values of the coefficients α and β that multiply the kinetic parameters K S, K A (α) and k cat (β). In the thermodynamic box embodied in Figure 2, the reciprocal of the coefficient α represents the allosteric coupling constant that characterizes energy linkage between the modifier and the substrate, while a […] represents the effect exerted by the modifier on catalysis. The specific velocity plot was used for the primary screening of the kinetic behavior of the modifiers (Equation 2), as it allows an immediate judgment of the type of interaction and to gather preliminary estimates of the coefficients α and β, as well as of the dissociation constant of the modifier. Refinement was then performed by fitting the rate Equation 1 to data.
Figure 3 Kinetic mechanisms of the identified modifiers. All compounds were characterized by a combination of specific velocity plots (upper panels) and titration curves recorded at fixed substrate concentrations (lower panels). All experiments were performed at 25±1°C in 100 mM sodium acetate buffer pH 5.50 containing 1 mM EDTA and 2.5 mM DTT using the fluorogenic substrate Z-FR↓AMC and at a final enzyme concentration of 0.5 nM.
All kinetic measurements were performed in 100 mM sodium acetate buffer pH 5.50 containing 1 mM EDTA and 2.5 mM dithiothreitol (DTT) in single-use acrylic cuvettes (1×1 cm) thermostatted at 25±1°C with magnetic stirring. The hydrolysis of Z-FR↓AMC was followed fluorometrically at λex 383 nm and λem 455 nm. All tested modifiers were analyzed spectroscopically to determine their absorption properties under the conditions used in the assays. When necessary, appropriate corrections were made to the calculated reaction rates to take into account the inner filter effect.
The effects of the modifiers on enzymatic activity were analyzed with the general modifier mechanism which describes the interaction between enzyme (E), substrate (S) and modifier (A), as shown in Figure 2. Assuming that binding of A to E and ES is at quasi-equilibrium and that steady-state conditions are established in the fluxes around ES and ESA (i.e. the catalytic steps), the reaction rate for the mechanism in Figure 2 is defined by Equation 1: [drawing 2] (1) where v 0 is the reaction rate in the absence of modifier, K A is the equilibrium dissociation constant of the EA complex, α and β are dimensionless coefficients and σ = [S]/K m, approximated to [S]/K s. To determine the mechanism of interaction, plot the kinetic data and calculate preliminary values of the interaction parameters, the specific velocity plot was used. For this purpose, Equation 1 is rewritten as:
The plot of v 0/v A versus σ/(1+σ) produces straight lines with intersection points at v 0/v A = 1, regardless of the interaction mechanism. The parameters α, β and K A are determined by replotting the extrapolated values of the straight lines at σ/(1+σ) = 0 (a) and σ/(1+σ) = 1 (b) versus 1/[A] in the form: [drawing 4] (3) [drawing 5] (4)

Data set [6] has the same target. As to the kind of experiment: Collagenolytic assays (calf skin collagen, SDS-PAGE). It counts as biochemical. Set-up: key to collagen: qualitative value: qualitative values of 1 and 0 were used to signify inhibition and lack thereof, respectively; qualitative values of 1 and 0 were used to signify inhibition and lack thereof, respectively; a value of -1 was used to describe the concentration-dependent roles of glycosaminoglycans. Here is the method:
The use of synthetic substrates is practical for the determination of the mechanisms of modification. […] Therefore, all modifiers were also tested with two macromolecular substrates, calf skin collagen and azocasein. The collagenolytic activity was tested quantitatively by following the fragmentation of the characteristic type I collagen pattern into smaller products on SDS-PAGE after incubation of the samples with cathepsin K in the presence and absence of modifiers.
Soluble calf skin collagen (Worthington Biochemical Corporation, USA) was diluted in 100 mM sodium acetate buffer pH 5.50 containing 1 mM EDTA and 5 mM DTT to a final concentration of 0.5 mg/ml. Experiments were started by addition of cathepsin K (final enzyme concentration 0.6 µM) to the reaction mixture containing collagen and increasing concentrations of modifier. All assays were performed at 28°C with shaking on an Eppendorf Thermomixer Comfort. Samples were incubated for 2 hours and the reactions then blocked by addition of E-64 to a final concentration of 1 µM. 10 µg of digested collagen were analyzed by SDS-PAGE on 8% polyacrylamide gels and protein bands visualized by Coomassie Brilliant Blue R-250 staining.

The target is the same in data set [7]. As to the kind of experiment: Thermal stability of cathepsin K at pH 7.4 in the presence of modifiers. Format: biochemical. Conditions: 37 °C and pH 7.4. Here is the method:
Cathepsin K was incubated at 37°C in 50 mM Hepes buffer pH 7.40 containing 1 mM EDTA and 5 mM DTT in the presence or absence of each modifier. The final enzyme concentration was 0.2 µM and final compounds concentrations were 2 mM, except compound 2, which was used at a concentration of 1 mM. All experiments were performed in Eppendorf Protein LoBind Tubes to minimize the adsorption of proteins on tube walls. Aliquots were withdrawn from the reaction mixtures at regular time intervals and their residual activity measured using the substrate Z-FR↓AMC (5 µM final concentration). Inactivation curves had exponential profiles that were fitted with the mathematical model for one-phase exponential decay to determine the half-life of the enzyme in each reaction mixture.

The mark [8] stands for this setting: substrate Z-FR↓AMC, pH 5.50, 25°C, 0.5 nM enzyme.
The mark [9] stands for this setting: substrate Z-FR↓AMC, pH 5.50, 25°C, 0.5 nM enzyme, listed as compound 7.

On to dermatan sulfate [reference compound], for which the “azocasein: fraction of residual enzyme activity” value in data set [1] is 0.32. In data set [2], the “Z-FRAMC: geometric mean of residual activities (vA)” value is 3.18. The “collagen: qualitative value” in data set [3] is recorded as -1. The “stability: ln(sf), sf = ratio of half-lives in the presence and absence of modifier” value (from here on “stability: ln(sf), sf = ratio”) in data set [4] was -0.15.

For “clusterin: extracellular chaperone, stabilizer and liberator of cathepsin K”, in data set [1] (glycosaminoglycans at 10 µg/ml and 200 µg/ml, clusterin), the “Effect on azocasein degradation” value is on record as “marginal inhibitory effect”. Besides, the “azocasein: fraction of residual enzyme activity” value in data set [1] was 0.95. In addition, in data set [2], the “Z-FRAMC: geometric mean of residual activities (vA)” value was 1.00 and the “Effect on the hydrolysis of Z-FR↓AMC” value is on record as “no effect on enzymatic activity”. Further, in data set [2] (listed as CLU), the “Effect on the hydrolysis of Z-FR↓AMC” value was “no modification”. For the same molecule, in data set [3], the “collagen: qualitative value” was 0. In data set [4], the “stability: ln(sf), sf = ratio” value is listed as 0.79; the “Effect on stability of cathepsin K at physiological plasma pH 7.4” value was “increase the stability”.

On to heparin, for which the “azocasein: fraction of residual enzyme activity” value in data set [1] was determined as 0.31. In addition, in data set [2], the “Z-FRAMC: geometric mean of residual activities (vA)” value is reported as 1.55. For the same molecule, in data set [3], the “collagen: qualitative value” is listed as -1. Moreover, in data set [4], the “stability: ln(sf), sf = ratio” value is 1.69; the “Effect on stability of cathepsin K at physiological plasma pH 7.4” value is given as “increase the stability”.

As to “chondroitin sulfate [reference compound]”, the “Effect on azocasein degradation” value in data set [1] (lowest concentration, 10 µg/ml) was “ineffective”. In data set [1], the “azocasein: fraction of residual enzyme activity” value was 0.90. The “Z-FRAMC: geometric mean of residual activities (vA)” value in data set [2] is on record as 2.40. In data set [3], the “collagen: qualitative value” was -1. The “stability: ln(sf), sf = ratio” value in data set [4] is on record as -0.24.

Turning to `O=C(O)c1ccccc1C(=O)Nc1cccc([N+](=O)[O-])c1` [Compound 7, 2-[(3-Nitrophenyl)carbamoyl]benzoic acid], the “Z-FRAMC: geometric mean of residual activities (vA)” value in data set [5] (at 0.1×Km and 10×Km substrate, modifier 10×KA, calculated with Equation 1 from α and β of Table 3, unmodified enzyme = 1.00) was 0.48. In addition, the “Kinetic mechanism of modification” value in data set [5] (substrate Z-FR↓AMC, from combinations of α and β) is “hyperbolic mixed inhibitors with uncompetitive character”. Also, the “α (coefficient, effect of modifier on the affinity for the substrate)” value is reported as 0.19±0.03 in data set [5] (setting [8]) and below 1 in data set [5] (setting [9]). In addition, the “β (coefficient, effect of modifier on the catalytic rate)” value was 0.19±0.03 in data set [5] (setting [8]) and below 1 in data set [5] (setting [9]). Further, the Kd in data set [5] (substrate Z-FR↓AMC, pH 5.50, 25°C, 0.5 nM enzyme, read-out: K A (equilibrium dissociation constant of the EA complex)) came to 290 ± 20 µM. Further, in data set [1] (compounds up to 2 mM (compound 2: 1 mM)), the “Effect on azocasein degradation” value was “ineffective”. Moreover, the remaining activity in data set [1] (pH 5.5, substrate azocasein 3 mg/ml, 0.1 µM cathepsin K, 30 min 37°C, pH 5.50, compounds up to 2 mM (compound 2: 1 mM), read-out: Residual activity) turned out to be 104 ± 5%. In addition, the “azocasein: fraction of residual enzyme activity” value in data set [1] is on record as 1.01. The “collagen: qualitative value” in data set [6] (activity modification matrix) worked out at 0. In data set [6] (substrate calf skin collagen 0.5 mg/ml, 0.6 µM cathepsin K, 2 hours 28°C, pH 5.50, estimated), the “IC50” value is “n.i”. Moreover, in data set [7], the “stability: ln(sf), sf = ratio” value is listed as 0.47.
